US12103920B2, “Cereblon binding compounds, compositions thereof, and methods of treatment therewith” (Celgene Corporation, priority 2020, dated 2024)
Counter-ions that a name gives are not always drawn.

Molecular target: T1, AR protein in VCaP cells (Homo sapiens, UniProt P10275)
T1 construct: endogenous in cells; host or cells: VCaP cells
T1 sequence (P10275 1-920): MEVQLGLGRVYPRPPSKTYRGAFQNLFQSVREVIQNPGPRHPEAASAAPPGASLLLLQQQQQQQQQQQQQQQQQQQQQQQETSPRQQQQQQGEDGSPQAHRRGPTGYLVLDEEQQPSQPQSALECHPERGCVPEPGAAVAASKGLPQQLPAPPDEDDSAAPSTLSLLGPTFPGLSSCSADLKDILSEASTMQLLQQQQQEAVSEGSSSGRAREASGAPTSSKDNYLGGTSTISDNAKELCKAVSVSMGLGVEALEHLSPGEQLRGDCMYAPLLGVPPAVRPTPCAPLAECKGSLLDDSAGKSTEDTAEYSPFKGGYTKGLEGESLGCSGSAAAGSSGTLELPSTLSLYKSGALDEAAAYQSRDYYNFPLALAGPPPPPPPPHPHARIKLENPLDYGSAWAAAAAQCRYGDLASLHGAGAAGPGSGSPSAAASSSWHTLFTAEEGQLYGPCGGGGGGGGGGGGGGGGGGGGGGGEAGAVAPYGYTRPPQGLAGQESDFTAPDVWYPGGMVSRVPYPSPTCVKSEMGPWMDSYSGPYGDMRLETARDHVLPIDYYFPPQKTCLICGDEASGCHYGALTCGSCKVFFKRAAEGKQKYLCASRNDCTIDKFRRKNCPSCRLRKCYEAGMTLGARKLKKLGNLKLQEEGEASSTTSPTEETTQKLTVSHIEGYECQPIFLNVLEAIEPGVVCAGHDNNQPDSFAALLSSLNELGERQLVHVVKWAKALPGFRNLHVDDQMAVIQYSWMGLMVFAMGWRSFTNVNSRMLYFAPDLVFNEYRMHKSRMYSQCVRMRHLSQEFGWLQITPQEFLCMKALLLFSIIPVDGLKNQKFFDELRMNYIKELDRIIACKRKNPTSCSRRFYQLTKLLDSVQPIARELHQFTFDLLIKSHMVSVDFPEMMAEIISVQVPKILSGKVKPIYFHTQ
Assay: VCAP AR Degradation Assay
Format: cell-based
Details: 24 h, AR ELISA; for DC50: concentration at 50% of DMSO control (50% AR degradation); for Y: lowest measured AR level normalized to DMSO control
Method: VCAP AR Degradation Assay. Test compounds were pre-dispensed into a Corning CellBind 96-well clear bottom plate (Cat #3300) using an acoustic dispenser to make a 10-point concentration series at 1:3 dilution for each compound. The final top concentration of each compound was 5 μM. DMSO at a final concentration of 0.1% was used as a control. VCaP cells cultured in DMEM with 8% fetal bovine serum (FBS) were seeded at 50K cells per well in a 200 μL volume into the compound plate and incubated at 37° C. in a CO2 incubator for 24 h. The medium was carefully removed from the cells and the plate was placed on ice. One hundred μL of ice-cold 1× cell lysis buffer from Cell Signaling Technologies (Cat #9803) was added to each well of the cells and the plate was incubated at 4° C. on a shaker for 1 h. Fifteen μL of cell lysate was used for AR ELISA detection using a PathScan Total Sandwich AR ELISA kit (Cell Signaling Technology, Cat #12580). AR levels in compound-treated wells were normalized to that of DMSO control and expressed as percent of control (PoC) (y). A Four Parameter Logistic Model (Sigmoidal Dose-Response Model) was used to determine the compound's DC50, and EC50, using the following equation: y=(A+((B−A)/(1+((C/x)^D)))) • A=YMin (lowest AR level normalized to DMSO control in response to compound treatment, as determined by curve fit) • B=YMax (maximum AR level as determined by curve fit) • C=EC50 • D=Hill Slope • x=compound concentration • EC50=the concentration of compound when y=(YMax−YMin)/2 • DC50=the concentration of the compound when y=50% of DMSO control (50% AR degradation) • y=AR protein level normalized to DMSO control
The lowest measured AR level normalized to DMSO control in response to compound treatment, termed Y value, was used to characterize the compound-mediated AR degradation efficiency.

SMILES | DC50 [nM] | Y
C[C@@H]1C[C@H](OCCO[C@H]2CC[C@H](N3C(=S)N(c4ccc(C#N)c(C(F)(F)F)c4)C(=O)C3(C)C)CC2)C[C@H](C)N1CC(=O)Nc1cccc(NC2CCC(=O)NC2=O)c1 (stereo partly drawn) [Cmpd 43, 2-((2R,4r,6S)-4-(2-(((trans)-4-(3-(4-Cyano-3-(trifluoromethyl)phenyl)-5,5-dimethyl-4-oxo-2-thioxoimidazolidin-1-yl)cyclohexyl)oxy)ethoxy)-2,6-dimethylpiperidin-1-yl)-N-(3-((2,6-dioxopiperidin-3-yl)amino)phenyl)acetamide] | 5 to 10 | *** (25%<Y<50%)
CC1(C)C(=O)N(c2ccc(C#N)c(C(F)(F)F)c2)C(=S)N1[C@H]1CC[C@H](OCCN2CCN(CC(=O)Nc3cc(C#N)cc(NC4CCC(=O)NC4=O)c3)[C@@H](C(F)(F)F)C2)CC1 (stereo partly drawn) [Cmpd 34, 2-((R)-4-(2-(((trans)-4-(3-(4-Cyano-3-(trifluoromethyl)phenyl)-5,5-dimethyl-4-oxo-2-thioxoimidazolidin-1-yl)cyclohexyl)oxy)ethyl)-2-(trifluoromethyl)piperazin-1-yl)-N-(3-cyano-5-((2,6-dioxopiperidin-3-yl)amino)phenyl)acetamide] | 5 to 10 | *** (25%<Y<50%)
C[C@@H]1CN(CCCO[C@H]2CC[C@H](N3C(=S)N(c4ccc(C#N)c(Cl)c4)C(=O)C3(C)C)CC2)C[C@H](C)N1CC(=O)Nc1cccc(NC2CCC(=O)NC2=O)c1 (stereo partly drawn) [Cmpd 9, 2-((2R,6S)-4-(3-((trans-4-(3-(3-Chloro-4-cyanophenyl)-5,5-dimethyl-4-oxo-2-thioxoimidazolidin-1-yl)cyclohexyl)oxy)propyl)-2,6-dimethylpiperazin-1-yl)-N-(3-((2,6-dioxopiperidin-3-yl)amino)phenyl)acetamide hydrochloride] | ≤ 5 | *** (25%<Y<50%)
CC1(C)C(=O)N(c2cnc(C#N)c(C(F)(F)F)c2)C(=S)N1[C@H]1CC[C@H](OCCN2CCN(CC(=O)Nc3cccc(NC4CCC(=O)NC4=O)c3)[C@@H](C(F)(F)F)C2)CC1 (stereo partly drawn) [Cmpd 20, 2-((R)-4-(2-((trans-4-(3-(6-Cyano-5-(trifluoromethyl)pyridin-3-yl)-5,5-dimethyl-4-oxo-2-thioxoimidazolidin-1-yl)cyclohexyl)oxy)ethyl)-2-(trifluoromethyl)piperazin-1-yl)-N-(3-((2,6-dioxopiperidin-3-yl)amino)phenyl)acetamide hydrochloride] | ≤ 5 | * (0<Y≤15%)
C[C@@H]1C[C@H](OCCO[C@H]2CC[C@H](N3C(=S)N(c4cnc(C#N)c(C(F)(F)F)c4)C(=O)C3(C)C)CC2)C[C@H](C)N1CC(=O)Nc1cccc(NC2CCC(=O)NC2=O)c1 (stereo partly drawn) [Cmpd 45, 2-((2R,4r,6S)-4-(2-(((trans)-4-(3-(6-Cyano-5-(trifluoromethyl)pyridin-3-yl)-5,5-dimethyl-4-oxo-2-thioxoimidazolidin-1-yl)cyclohexyl)oxy)ethoxy)-2,6-dimethylpiperidin-1-yl)-N-(3-((2,6-dioxopiperidin-3-yl)amino)phenyl)acetamide] | ≤ 5 | ** (15%<Y≤20%)
CC1(C)C(=O)N(c2cnc(C#N)c(C(F)(F)F)c2)C(=S)N1[C@H]1CC[C@H](OCCCN2CCN(CC(=O)Nc3cccc(NC4CCC(=O)NC4=O)c3)[C@@H](C(F)(F)F)C2)CC1 (stereo partly drawn) [Cmpd 28, 2-((R)-4-(3-(((trans)-4-(3-(6-cyano-5-(trifluoromethyl)pyridin-3-yl)-5,5-dimethyl-4-oxo-2-thioxoimidazolidin-1-yl)cyclohexyl)oxy)propyl)-2-(trifluoromethyl)piperazin-1-yl)-N-(3-((2,6-dioxopiperidin-3-yl)amino)phenyl)acetamide] | ≤ 5 | * (0<Y≤15%)
CC1(C)C(=O)N(c2ccc(C#N)c(C(F)(F)F)c2)C(=S)N1[C@H]1CC[C@H](OCCC2CCN(CC(=O)Nc3cccc(NC4CCC(=O)NC4=O)c3)CC2(F)F)CC1 (stereo partly drawn) [Cmpd 44, 2-(4-(2-(((trans)-4-(3-(4-Cyano-3-(trifluoromethyl)phenyl)-5,5-dimethyl-4-oxo-2-thioxoimidazolidin-1-yl)cyclohexyl)oxy)ethyl)-3,3-difluoropiperidin-1-yl)-N-(3-((2,6-dioxopiperidin-3-yl)amino)phenyl)acetamide] | 5 to 10 | * (0<Y≤15%)
CC1(C)C(=O)N(c2ccc(C#N)c(C(F)(F)F)c2)C(=S)N1[C@H]1CC[C@H](OCCN2CCN(CC(=O)Nc3cccc(NC4CCC(=O)NC4=O)c3)[C@H](C(F)(F)F)C2)CC1 (stereo partly drawn) [Cmpd 40, 2-((S)-4-(2-(((trans)-4-(3-(4-Cyano-3-(trifluoromethyl)phenyl)-5,5-dimethyl-4-oxo-2-thioxoimidazolidin-1-yl)cyclohexyl)oxy)ethyl)-2-(trifluoromethyl)piperazin-1-yl)-N-(3-((2,6-dioxopiperidin-3-yl)amino)phenyl)acetamide] | 10 to 100 | *** (25%<Y<50%)
C[C@@H]1CN(CCC[C@H]2CC[C@H](N3C(=S)N(c4ccc(C#N)c(C(F)(F)F)c4)C(=O)C3(C)C)CC2)C[C@H](C)N1CC(=O)Nc1cccc(N[C@@H]2CCC(=O)NC2=O)c1 [Cmpd 6, 2-((2R,6S)-4-(3-(trans-4-(3-(4-Cyano-3-(trifluoromethyl)phenyl)-5,5-dimethyl-4-oxo-2-thioxoimidazolidin-1-yl)cyclohexyl)propyl)-2,6-dimethylpiperazin-1-yl)-N-(3-(((R)-2,6-dioxopiperidin-3-yl)amino)phenyl)acetamide hydrochloride] | 5 to 10 | * (0<Y≤15%)
C[C@@H]1CN(CCC[C@H]2CC[C@H](N3C(=S)N(c4ccc(C#N)c(C(F)(F)F)c4)C(=O)C3(C)C)CC2)C[C@H](C)N1CC(=O)Nc1cccc(N[C@H]2CCC(=O)NC2=O)c1 [Cmpd 18, 2-((2R,6S)-4-(3-(trans-4-(3-(4-Cyano-3-(trifluoromethyl)phenyl)-5,5-dimethyl-4-oxo-2-thioxoimidazolidin-1-yl)cyclohexyl)propyl)-2,6-dimethylpiperazin-1-yl)-N-(3-(((S)-2,6-dioxopiperidin-3-yl)amino)phenyl)acetamide] | 10 to 100 | ** (15%<Y≤20%)
CC1(C)C(=O)N(c2ccc(C#N)c(C(F)(F)F)c2)C(=S)N1[C@H]1CC[C@H](OCCCN2CCN(CC(=O)Nc3cccc(NC4CCC(=O)NC4=O)c3)[C@@H](C(F)(F)F)C2)CC1 (stereo partly drawn) [Cmpd 30, 2-((R)-4-(3-(((trans)-4-(3-(4-Cyano-3-(trifluoromethyl)phenyl)-5,5-dimethyl-4-oxo-2-thioxoimidazolidin-1-yl)cyclohexyl)oxy)propyl)-2-(trifluoromethyl)piperazin-1-yl)-N-(3-((2,6-dioxopiperidin-3-yl)amino)phenyl)acetamide] | 5 to 10 | * (0<Y≤15%)
C[C@@H]1CN(CCO[C@H]2CC[C@H](N3C(=S)N(c4cnc(C#N)c(C(F)(F)F)c4)C(=O)C3(C)C)CC2)C[C@H](C)N1CC(=O)Nc1cccc(N[C@@H]2CCC(=O)NC2=O)c1 [Cmpd 48, 2-((2R,6S)-4-(2-(((trans)-4-(3-(6-Cyano-5-(trifluoromethyl)pyridin-3-yl)-5,5-dimethyl-4-oxo-2-thioxoimidazolidin-1-yl)cyclohexyl)oxy)ethyl)-2,6-dimethylpiperazin-1-yl)-N-(3-(((R)-2,6-dioxopiperidin-3-yl)amino)phenyl)acetamide] | < 1000 | * (0<Y≤15%)
